Results on two substances are retold here after patent US10131692B2, “Vasopressin-2 receptor agonists” (Ferring B.V., priority 2013, dated 2018).

The conditions of data set [1]: in vivo; cited from earlier work.
Data set [2] addresses human V2 receptor (h V2R) (Homo sapiens (Human), UniProt P30518). In words: hV2 receptor agonist transcriptional reporter gene (luciferase) assay. The note with it: HEK-293 cells transiently transfected with hV2 receptor, dDAVP internal control. In kind it is cell-based. A general note: A reporter such as luciferase makes a cellular process visible.

For “[1-deamino, 8-D-arginine]-vasopressin [Compound 42]”, the “route of clearance from the body” value in data set [1] is “cleared from the body primarily by the kidneys”. Turning to [Val4]dDAVP [Compound 43], the “% Efficacy hV2-R” value in data set [2] is given as 89%.
